The source of these data is publication PMC8397425, “A Strategy to Conjugate Bioactive Fragments to Cytotoxic Diiron Bis(cyclopentadienyl) Complexes” (Organometallics, 2021).

Test [1] relates to Human Ovarian Carcinoma Cisplatin Resistant (A2780cisR) cell line. Nature of the test: MTT cytotoxicity, A2780cisR. It counts as cell-based. To be noted: 72 h exposure, mean ± SD. From the text: (§1) Human ovarian carcinoma (A2780 and A2780cisR) cell lines were obtained from the European Collection of Cell Cultures. The Human Embryonic Kidney 293T (HEK 293T) cell line was obtained from the ATCC (Sigma, Buchs, Switzerland). Penicillin–streptomycin, RPMI 1640 GlutaMAX (where RPMI = Roswell Park Memorial Institute), and DMEM GlutaMAX media (where DMEM = Dulbecco’s modified Eagle medium) were obtained from Life Technologies, and fetal bovine serum (FBS) was obtained from Sigma. The cells were cultured in RPMI 1640 GlutaMAX (A2780 and A2780cisR) and DMEM GlutaMAX (HEK 293T) media containing 10% heat-inactivated FBS and 1% penicillin–streptomycin at 37 °C and CO2 (5%). The A2780cisR cell line was routinely treated with cisplatin (2 μM) in the media to maintain cisplatin resistance. The cytotoxicity was determined using the 3-(4,5-dimethyl-2-thiazolyl)-2,5-diphenyl-2H-tetrazolium bromide (MTT) assay.[42] Cells were seeded in flat-bottomed 96-well plates as a suspension in a prepared medium (100 μL aliquots and approximately 4300 cells/well) and preincubated for 24 h. Stock solutions of compounds were prepared in DMSO and were diluted in the medium. The solutions were sequentially diluted to give a final DMSO concentration of 0.5% and a final compound concentration range of 0–200 μM. Cisplatin was tested as a positive (0–100 μM) control. The compounds were placed in the preincubated 96-well plates in 100 μL aliquots, and the plates were incubated for a further 72 h. MTT (20 μL, 5 mg/mL in Dulbecco’s phosphate buffered saline) was placed in the cells, and the plates were incubated for a further 4 h. The culture medium was aspirated, and the purple formazan crystals, formed by the mitochondrial dehydrogenase activity of vital cells, were dissolved in DMSO (100 μL/well). The absorbance of the resulting solutions, directly proportional to the number of surviving cells, was quantified at 590 nm using a SpectroMax M5e multimode microplate reader (using SoftMax Pro software, version 6.2.2). The percentage of surviving cells was calculated from the absorbance of wells corresponding to the untreated control cells. The reported IC50 values are based on the means from two independent experiments, each comprising four tests per concentration level.

Test [2] has as its system Human Embryonic Kidney 293T (HEK 293T) cell line. In words: MTT cytotoxicity, HEK 293T. It counts as cell-based. To be noted: 72 h exposure, mean ± SD.
Excerpt: as §1

The next test addresses T1, COX-2 enzyme (Homo sapiens, UniProt P35354).
T1 construct: purchased Cayman Chemical Company
T1 sequence (P35354 18-604): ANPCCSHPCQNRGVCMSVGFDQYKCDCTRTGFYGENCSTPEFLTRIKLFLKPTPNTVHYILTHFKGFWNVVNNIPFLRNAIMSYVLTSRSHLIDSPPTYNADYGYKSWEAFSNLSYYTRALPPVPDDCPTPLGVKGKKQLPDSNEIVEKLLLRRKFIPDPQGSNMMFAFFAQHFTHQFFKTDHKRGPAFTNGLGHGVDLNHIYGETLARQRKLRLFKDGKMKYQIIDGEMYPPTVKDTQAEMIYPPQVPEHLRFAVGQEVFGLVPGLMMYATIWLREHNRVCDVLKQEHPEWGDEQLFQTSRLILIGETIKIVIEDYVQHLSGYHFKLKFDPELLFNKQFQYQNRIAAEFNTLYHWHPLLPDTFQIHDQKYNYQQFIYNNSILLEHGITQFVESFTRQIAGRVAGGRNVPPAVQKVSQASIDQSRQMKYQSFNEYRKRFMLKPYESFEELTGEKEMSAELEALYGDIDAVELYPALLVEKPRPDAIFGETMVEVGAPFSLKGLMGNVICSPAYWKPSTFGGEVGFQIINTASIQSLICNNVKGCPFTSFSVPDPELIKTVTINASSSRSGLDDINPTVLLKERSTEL
In words: COX-2 enzyme inhibition assay (fluorimetric). Format: biochemical. To be noted: residual enzyme activity, 25 °C, pH 8, mean ± SD. As to the method:
Next, the possible role of the bioactive fragment in the complexes was studied.
The IC50 value was obtained using GraphPad Prism 7 software. All of the inhibitor assays were performed at least in triplicate.

The test system of test [3] is guanosine 5′-monophosphate (disodium salt, Na2[GMP]). In words: Reaction with model nucleotide GMP (mass spectrometry). To be noted: D2O/CD3OD, 1 equiv Na2[GMP], 24 h at 37 °C. As to the method: The ability of [4]CF3SO3 and [9]CF3SO3 to interact with natural DNA was studied using the ethidium bromide (EB) exchange test (Figure 6), with the concentration of the complexes beingin the 1.5–124 μM range for [4]CF3SO3 and 1.4–135 μM for [9]CF3SO3. Blank experiments were carried out with the two bioactive molecules and also with DMSO to check for solvent/dilution effects. […] However, EB exchange titrations are suitable to recognize fast noncovalent binding events, but not subsequent slow covalent binding. Therefore, since chlorambucil is a DNA-alkylating agent, we studied the possible reaction of [9]CF3SO3 with the nucleotide guanosine 5′-monophosphate (disodium salt, Na2[GMP]; see Figure 4) as a model for DNA binding. Complex [9]CF3SO3 was incubated with a D2O/CD3OD mixture containing GMP for 24 h at 37 °C.
In order to analyze the interaction with a model nucleotide, a freshly prepared solution of [9]CF3SO3 (2 mg) in D2O/CD3OD (5/3 v/v) was treated with 1 equiv of anhydrous Na2[GMP]. The resulting mixture was maintained at 37 °C for 24 h, and then the final solution was filtered in order to remove some solid and analyzed by mass spectrometry. HPLC-MS(+): m/z found 1087.2451 [9^GMP + Na]^+, calcd for C47H53Fe2N8NaO12P 1087.2117; m/z found 555.0666 [9^GMP + 2Na]^2+, calcd for C47H53Fe2N8Na2O12P 555.1008. The isotopic patterns fit well the calculated patterns.

A word on the IC50: it is the midpoint of a concentration-inhibition curve. A low value points to higher potency. On to “[Fe2Cp2(CO)(μ-CO){μ-η^1:η^3-Cγ(3-C6H4OC(=O)C6H4OC(=O)Me)CβHCαNMe(Xyl)}]CF3SO3 [[4]CF3SO3]”, for which the IC50 worked out at 2.6 ± 0.4 µM in test [1], 3.8 ± 0.7 µM in test [2] and 30 ± 3 µM against COX-2 enzyme.

Regarding “[Fe2Cp2(CO)(μ-CO){μ-η^1:η^3-Cγ(3-C6H4NHC(=O)(CH2)3C6H4N(CH2CH2Cl)2)CβHCαNMe2}]CF3SO3 [[9]CF3SO3]”, the figures for the IC50 in test [1] and in test [2] were 3.8 ± 0.3 µM and 9 ± 3 µM, respectively. In addition, in test [3], the “conversion into the neutral GMP adduct 9^GMP” value is “almost complete conversion”.
